{
  "source": "patent US8729088B2",
  "about": "“Toll-like receptor modulators and treatment of diseases” (The Regents of the University of California, priority 2009, dated 2014)",
  "key": {"[1]": {"tested_on": "C57BL/6 mice", "experiment": "Thioglycolate induced peritonitis (peritoneal neutrophil infiltration)", "conditions": "50 nmoles i.v. for three days before thioglycolate", "description": "(§1) Peritoneal cells were collected four hours after TG injection. Total cells were counted by haematocytometer and neutrophils were morphologically identified.\n(§2) 4 hours post TG injection total peritoneal cells were harvested and counted. Neutrophils were identified morphologically and counted.\n(§3) One day after the last treatment, mice received intraperitoneal injection of 2 ml thioglycollate medium. […] Three hours after the thioglycollate injection, neutrophil infiltration to the peritoneum was evaluated."}, "[2]": {"tested_on": "mice", "conditions": "cited from earlier work"}, "[3]": {"tested_on": "C57BL/6 mice", "conditions": "mouse, in vivo", "description": "as §1, §2, §3"}, "[4]": {"experiment": "Solubility observations", "assay_type": "physicochemical"}, "[5]": {"tested_on": "TLR7", "experiment": "Cytokine induction in BMDM from wild type and TLR7 deficient mice", "assay_type": "cell-based, mouse", "conditions": "BMDM from TLR7 deficient mice", "protocol": "In vitro measurements of cytokine induction were performed using the mouse leukemic monocyte macrophage cell line, RAW264.7. […] BMDM were prepared from C57BL/6 and TLR7 deficient mice as described in Wu, C. C et al., (2007) “Immunotherapeutic activity of a conjugate of a Toll-like receptor 7 ligand”, Proc Natl Acad Sci USA 104, 3990-5.\nIn general, RAW264.7 cells or BMDM were incubated with various concentrations of conjugates for 18 hours at 37° C., 5% CO2 and culture supernatants were collected. The levels of cytokines (IL-6, IL-12 or TNF-α in the supernatants were determined by ELISA (BD Biosciences Pharmingen, La Jolla, Calif.) (Cho, H. J et al., “Immunostimulatory DNA-based vaccines induce cytotoxic lymphocyte activity by a T-helper cell-independent mechanism” [see comments], Nat Biotechnol 18, 509-14 (2000)), and the results presented in FIG. 2A-D. Data are mean±SEM of triplicates and are representative of three independent experiments. Minimum detection levels of these cytokines were 15 pg/mL."}, "[6]": {"tested_on": "pro-inflammatory cytokines (IL-6, TNF-α) in sera", "experiment": "In vivo kinetics of pro-inflammatory cytokine induction after intravenous injection", "design": "species or system mouse", "conditions": "200 nmol per animal i.v.", "protocol": "The pharmacokinetics of pro inflammatory cytokine induction by TLR7 conjugates was examined using 6- to 8-week old C57BL/6 mice. […] Blood samples were collected 2, 4, 6, 24 or 48 hours after injections. Sera were separated and kept at −20° C. until use."}},
  "data": [
    {"smiles": "COCCOc1nc(N)c2nc(O)n(Cc3ccccc3)c2n1", "note": "[SM, 9-benzyl-8-hydroxy-2-(2-methoxyethoxy) adenine, reference compound]", "values": [
      {"measurement": "neutrophils recruited to the peritoneum", "setting": "[1]", "result": "reduction"},
      {"measurement": "total cells recruited to the peritoneum", "setting": "[1]", "result": "reduction"},
      {"measurement": "adverse effects in mice", "setting": "[2]; Hayashi et al. 2008", "result": "anorexic effects and hypothermia"},
      {"measurement": "minimum dose that induced the anorectic reaction", "setting": "[2]; mucosal administration", "result": 50, "unit": "nmoles per mice"},
      {"measurement": "adverse reaction compared to TG", "setting": "[3]", "result": "no additional adverse reaction"},
      {"measurement": "solubility in aqueous solution", "setting": "[4]", "result": "insoluble"},
      {"measurement": "IL-12 and IL-6 induction", "setting": "[5]", "result": "little or no IL-12 and IL-6"},
      {"measurement": "course of serum cytokine levels", "setting": "[6]", "result": "declined rapidly after 2 hours"}
    ]}
  ]
}
